From publication PMC6152393, “Rational Design of Cyclic Antimicrobial Peptides Based on BPC194 and BPC198” (Molecules : A Journal of Synthetic Chemistry and Natural …, 2017)
Peptide text beside a SMILES is read from it.

Key:
Assay type in all cases: cell-based
[1] = system: Xanthomonas axonopodis pv. vesicatoria 2133-2; settings: Trypticase Soy Broth, 25 °C, 48 h, OD 600 nm (Bioscreen C), peptides at 3.1, 6.2, 12.5, 25, 50 μM, three replicates, experiment repeated twice, MIC = lowest concentration with no growth
Method: (§1) The antibacterial activity of the designed cyclic peptides was assayed against P. syringae pv. syringae, X. axonopodis pv. vesicatoria, and E. amylovora at 3.1, 6.2, 12.5, 25, and 50 μM. Peptides BPC194 and BPC198 were also included in these assays for comparison purposes.
(§2) The following plant pathogenic bacterial strains were used: Erwinia amylovora PMV6076 (Institut National de la Recherche Agronomique, Angers, France); Pseudomonas syringae pv. syringae EPS94 (Institut de Tecnologia Agroalimentària, Universitat de Girona, Spain); and Xanthomonas axonopodis pv. vesicatoria 2133-2 (Instituto Valenciano de Investigaciones Agrarias, Valencia, Spain). All bacteria were stored in Luria Bertani (LB) broth supplemented with glycerol (20%) and maintained at –80 °C. E. amylovora and P. syringae pv. syringae were scrapped from LB agar after growing for 24 h and X. axonopodis pv. vesicatoria after growing for 48 h at 25 °C. The cell material was suspended in sterile water to obtain a suspension of 10^8 CFU mL^−1.
(§3) Lyophilized peptides were solubilized in sterile Milli-Q water to a final concentration of 1000 μM and sterilized through a 0.22-μm pore filter. For MIC assessment, dilutions of the synthetic peptides were made to obtain a final concentration of 500, 250, 125, 62.5, 31.2, and 15.6 μM. Twenty microlitres of each dilution were mixed in a microtiter plate well with 20 μL of the corresponding suspension of the bacterial indicator and 160 μL of Trypticase Soy Broth (TSB) (BioMèrieux, Craponne, France) to a total volume of 200 μL. Three replicates for each strain, peptide, and concentration were used. Positive controls contained water instead of peptide and negative controls contained peptides without bacterial suspension. Bacterial growth was automatically determined by an optical density measurement at 600 nm (Bioscreen C, Labsystem, Helsinki, Finland). Microplates were incubated at 25 °C with 20 s shaking before hourly absorbance measurements for 48 h. Each experiment was repeated twice. The MIC was taken as the lowest peptide concentration with no growth at the end of the experiment. The inhibition of growth (I) was calculated as a percentage of the positive control using the equation: I = 100 × [(AC − AS)/AC], where AC is the area under the curve of the control, and AS is the area under the curve of a given peptide concentration.

[2] = system: Pseudomonas syringae pv. syringae EPS94; settings: 48 h
Method: as §1, §2, §3

[3] = system: Erwinia amylovora PMV6076; experiment: Antibacterial activity (MIC), growth inhibition in microtiter plates; settings: Trypticase Soy Broth, 25 °C, 48 h, OD 600 nm (Bioscreen C), peptides at 3.1, 6.2, 12.5, 25, 50 μM, three replicates, experiment repeated twice, MIC = lowest concentration with no growth
Method: as §1, §2, §3

Row | SMILES | MIC Intervals, Xav [1] [µM] | MIC Intervals, Pss [2] [µM] | MIC Intervals, Ea [3] [µM]
1 | CC(C)C[C@@H]1NC(=O)[C@H](CCCCN)NC(=O)[C@H](CCCCN)NC(=O)[C@H](CCCCN)NC(=O)[C@H](CCC(N)=O)NC(=O)[C@H](Cc2ccccc2)NC(=O)[C@H](CCCCN)NC(=O)[C@H](CCCCN)NC(=O)[C@H](CCCCN)NC(=O)[C@H](CC(C)C)NC1=O [BPC492] (cyclo(FQKKKLLKKK)) | 12.5 to 25 | 12.5 to 25 | >50
2 | CC(C)C[C@@H]1NC(=O)[C@H](CCCCN)NC(=O)[C@H](CCCCN)NC(=O)[C@H](CCCCN)NC(=O)[C@H](CCCCN)NC(=O)[C@H](CC(C)C)NC(=O)[C@H](CCCCN)NC(=O)[C@H](Cc2ccccc2)NC(=O)[C@H](CCCCN)NC(=O)[C@H](CCC(N)=O)NC1=O [BPC922] (cyclo(FKLKKKKLQK)) | 12.5 to 25 | 12.5 to 25 | >50
3 | CC(C)C[C@@H]1NC(=O)[C@H](CCCCN)NC(=O)[C@H](CCCCN)NC(=O)[C@H](Cc2ccccc2)NC(=O)[C@H](CCCCN)NC(=O)[C@H](CCCCN)NC(=O)[C@H](CCCCN)NC(=O)[C@H](CC(C)C)NC(=O)[C@H](CCCCN)NC(=O)[C@H](CCC(N)=O)NC1=O [BPC198, c(KLKKKFKKLQ)] (cyclo(FKKLQKLKKK)) | 3.1 to 6.2 | 3.1 to 6.2 | 12.5 to 25
4 | CC(C)C[C@@H]1NC(=O)[C@H](CCCCN)NC(=O)[C@H](CCC(N)=O)NC(=O)[C@H](CCCCN)NC(=O)[C@H](CCCCN)NC(=O)[C@H](CC(C)C)NC(=O)[C@H](Cc2ccccc2)NC(=O)[C@H](CCCCN)NC(=O)[C@H](CCCCN)NC(=O)[C@H](CCCCN)NC1=O [BPC914] (cyclo(FLKKQKLKKK)) | 12.5 to 25 | 12.5 to 25 | >50
5 | CC(C)C[C@@H]1NC(=O)[C@H](CCCCN)NC(=O)[C@H](CCCCN)NC(=O)[C@H](CCCCN)NC(=O)[C@H](CCCCN)NC(=O)[C@H](Cc2ccccc2)NC(=O)[C@H](CCCCN)NC(=O)[C@H](CC(C)C)NC(=O)[C@H](CCCCN)NC(=O)[C@H](CCC(N)=O)NC1=O [BPC916] (cyclo(FKKKKLQKLK)) | 12.5 to 25 | 6.2 to 12.5 | >50
6 | CC(C)C[C@@H]1NC(=O)[C@H](CCCCN)NC(=O)[C@H](CCCCN)NC(=O)[C@H](CCCCN)NC(=O)[C@H](Cc2ccccc2)NC(=O)[C@H](CCCCN)NC(=O)[C@H](CCC(N)=O)NC(=O)[C@H](CCCCN)NC(=O)[C@H](CCCCN)NC(=O)[C@H](CC(C)C)NC1=O [BPC920] (cyclo(FKKKLLKKQK)) | 25 to 50 | 12.5 to 25 | >50
7 | CC(C)C[C@@H]1NC(=O)[C@H](CCCCN)NC(=O)[C@H](CCC(N)=O)NC(=O)[C@H](Cc2ccccc2)NC(=O)[C@H](CCCCN)NC(=O)[C@H](CC(C)C)NC(=O)[C@H](CCCCN)NC(=O)[C@H](CCCCN)NC(=O)[C@H](CCCCN)NC(=O)[C@H](CCCCN)NC1=O [BPC488] (cyclo(FQKLKKKKLK)) | 6.2 to 12.5 |  | >50
8 | CC(C)C[C@@H]1NC(=O)[C@H](CCCCN)NC(=O)[C@H](CCCCN)NC(=O)[C@H](CCC(N)=O)NC(=O)[C@H](CC(C)C)NC(=O)[C@H](CCCCN)NC(=O)[C@H](CCCCN)NC(=O)[C@H](Cc2ccccc2)NC(=O)[C@H](CCCCN)NC(=O)[C@H](CCCCN)NC1=O [BPC194, c(KKLKKFKKLQ)] (cyclo(FKKLQKKLKK)) | 3.1 to 6.2 | 3.1 to 6.2 | 6.2 to 12.5
9 | CC(C)C[C@@H]1NC(=O)[C@H](CCC(N)=O)NC(=O)[C@H](Cc2ccccc2)NC(=O)[C@H](CC(C)C)NC(=O)[C@H](CCCCN)NC(=O)[C@H](CCCCN)NC(=O)[C@H](CCCCN)NC(=O)[C@H](CCCCN)NC(=O)[C@H](CCCCN)NC(=O)[C@H](CCCCN)NC1=O [BPC486] (cyclo(FQLKKKKKKL)) |  | 12.5 to 25 | >50
10 | CC(C)C[C@@H]1NC(=O)[C@H](CCC(N)=O)NC(=O)[C@H](CC(C)C)NC(=O)[C@H](Cc2ccccc2)NC(=O)[C@H](CCCCN)NC(=O)[C@H](CCCCN)NC(=O)[C@H](CCCCN)NC(=O)[C@H](CCCCN)NC(=O)[C@H](CCCCN)NC(=O)[C@H](CCCCN)NC1=O [BPC484] (cyclo(FLQLKKKKKK)) | 25 to 50 | 12.5 to 25 | >50
11 | CC(C)C[C@@H]1NC(=O)[C@H](CCCCN)NC(=O)[C@H](CCCCN)NC(=O)[C@H](CCCCN)NC(=O)[C@H](Cc2ccccc2)NC(=O)[C@H](CC(C)C)NC(=O)[C@H](CCCCN)NC(=O)[C@H](CCCCN)NC(=O)[C@H](CCCCN)NC(=O)[C@H](CCC(N)=O)NC1=O [BPC480] (cyclo(FKKKLQKKKL)) | 12.5 to 25 | 12.5 to 25 | >50
12 | CC(C)C[C@@H]1NC(=O)[C@H](CCC(N)=O)NC(=O)[C@H](CCCCN)NC(=O)[C@H](CCCCN)NC(=O)[C@H](CC(C)C)NC(=O)[C@H](Cc2ccccc2)NC(=O)[C@H](CCCCN)NC(=O)[C@H](CCCCN)NC(=O)[C@H](CCCCN)NC(=O)[C@H](CCCCN)NC1=O [BPC494] (cyclo(FLKKQLKKKK)) | 6.2 to 12.5 | 6.2 to 12.5 | >50
13 | CC(C)C[C@@H]1NC(=O)[C@H](CCCCN)NC(=O)[C@H](CCCCN)NC(=O)[C@H](CCC(N)=O)NC(=O)[C@H](Cc2ccccc2)NC(=O)[C@H](CCCCN)NC(=O)[C@H](CCCCN)NC(=O)[C@H](CC(C)C)NC(=O)[C@H](CCCCN)NC(=O)[C@H](CCCCN)NC1=O [BPC490] (cyclo(FQKKLKKLKK)) | 3.1 to 6.2 |  | 12.5 to 25
14 | CC(C)C[C@@H]1NC(=O)[C@H](CCCCN)NC(=O)[C@H](CCCCN)NC(=O)[C@H](CCCCN)NC(=O)[C@H](CC(C)C)NC(=O)[C@H](CCCCN)NC(=O)[C@H](CCC(N)=O)NC(=O)[C@H](Cc2ccccc2)NC(=O)[C@H](CCCCN)NC(=O)[C@H](CCCCN)NC1=O [BPC924] (cyclo(FQKLKKKLKK)) | 1.6 to 3.1 |  | 12.5 to 25
15 | CC(C)C[C@@H]1NC(=O)[C@H](CCCCN)NC(=O)[C@H](CCC(N)=O)NC(=O)[C@H](CC(C)C)NC(=O)[C@H](CCCCN)NC(=O)[C@H](Cc2ccccc2)NC(=O)[C@H](CCCCN)NC(=O)[C@H](CCCCN)NC(=O)[C@H](CCCCN)NC(=O)[C@H](CCCCN)NC1=O [BPC482] (cyclo(FKLQKLKKKK)) | 6.2 to 12.5 |  | >50
16 | CC(C)C[C@@H]1NC(=O)[C@H](CCCCN)NC(=O)[C@H](CCCCN)NC(=O)[C@H](CCCCN)NC(=O)[C@H](Cc2ccccc2)NC(=O)[C@H](CCCCN)NC(=O)[C@H](CCC(N)=O)NC(=O)[C@H](CC(C)C)NC(=O)[C@H](CCCCN)NC(=O)[C@H](CCCCN)NC1=O [BPC918] (cyclo(FKKKLKKLQK)) | 1.6 to 3.1 |  | 12.5 to 25
17 | CC(C)C[C@@H]1NC(=O)[C@H](CCC(N)=O)NC(=O)[C@H](CC(C)C)NC(=O)[C@H](CCCCN)NC(=O)[C@H](CCCCN)NC(=O)[C@H](CCCCN)NC(=O)[C@H](CCCCN)NC(=O)[C@H](Cc2ccccc2)NC(=O)[C@H](CCCCN)NC(=O)[C@H](CCCCN)NC1=O [BPC496] (cyclo(FKKKKLQLKK)) | 6.2 to 12.5 | 6.2 to 12.5 | >50
